Assay results as given in PubChem BioAssay (NCI).
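Values below derive from 48-hour exposures of cells grown in 96-well plates, with endpoints linearly interpolated between the two concentrations bracketing the appropriate inhibition level. GI50 = concentration required for 50% inhibition of growth. TGI: concentration producing complete growth inhibition.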

What was measured:
Assay in all cases: DTP human tumour cell line panel, 48 h
786-0 renal = tested on: 786-0 renal
A549 NSCLC = tested on: A549 NSCLC
COLO 205 colon = tested on: COLO 205 colon
KM12 colon = tested on: KM12 colon
M14 melanoma = tested on: M14 melanoma
MOLT-4 leukemia = tested on: MOLT-4 leukemia
OVCAR-3 ovarian = tested on: OVCAR-3 ovarian
SK-MEL-2 melanoma = tested on: SK-MEL-2 melanoma
SNB-78 CNS = tested on: SNB-78 CNS

Compound | TGI (786-0 renal) [µM] | TGI (A549 NSCLC) [µM] | TGI (COLO 205 colon) [µM] | TGI (KM12 colon) [µM] | TGI (M14 melanoma) [µM] | TGI (MOLT-4 leukemia) [µM] | TGI (OVCAR-3 ovarian) [µM] | TGI (SK-MEL-2 melanoma) [µM] | TGI (SNB-78 CNS) [µM] | GI50 (786-0 renal) [µM] | GI50 (A549 NSCLC) [µM] | GI50 (COLO 205 colon) [µM] | GI50 (KM12 colon) [µM] | GI50 (M14 melanoma) [µM] | GI50 (MOLT-4 leukemia) [µM] | GI50 (OVCAR-3 ovarian) [µM] | GI50 (SK-MEL-2 melanoma) [µM] | GI50 (SNB-78 CNS) [µM]
CCCCC1(C)C=C/C(=C2/C(=O)O/C(=C\C(=O)O)C2=O)O1 (stereo not drawn) | > 100 | > 100 | > 100 | > 100 | > 100 | > 100 | > 100 | > 100 | > 100 |  |  |  |  |  |  |  |  | 
CCC1(O)C(=O)OCc2c1cc1n(c2=O)Cc2cc3c(NC(=O)CN)cccc3nc2-1 (stereo not drawn) | 2.48 | > 67.7 | 46.6 | 44.7 | 8.73 | 1.13 | 22.3 | 41.1 | > 100 | 0.194 | 1.2 | 5 | 1.87 | 0.532 | 0.0438 | 3.3 | 9.74 | 8.13
CSc1nc2sc3c(c2c(=O)n1-c1ccc(C(C)C)cc1)CCC(=O)C3 | 9.79 | 20.7 | 3.63 | 3.95 | 7.6 | 6.71 | 3.53 | 5.77 |  | 3.06 | 3.77 | 1.89 | 1.9 | 2.82 | 2.64 | 1.94 | 2.5 | 
CC1OC(OC2C(O)CC(OC3C(O)CC(OC4CCC5(C)C(CCC6C5CC(O)C5(C)C(C7=CC(=O)OC7)CCC65O)C4)OC3C)OC2C)CC(O)C1O (stereo not drawn) | 0.162 | 0.0356 | 0.272 | 0.28 | 0.349 | 0.0619 | 0.113 | 0.346 |  | 0.041 | 0.0187 | 0.131 | 0.0824 | 0.176 | 0.0252 | 0.033 | 0.128 | 
Cc1cc[n+]2c(c1)-c1cc(C)cc[n+]1CC2 | > 100 | > 100 | > 86.1 | > 100 | > 100 | > 100 | > 100 | > 100 |  |  |  |  |  |  |  |  |  | 
c1ccc2c(c1)Nc1ccncc1S2 | > 100 | > 100 | 37.1 | 42.5 | > 100 | > 100 | 57 | 36.7 |  | 28.8 | 26.3 | 11.5 | 14.2 | 32.4 | 31.1 | 18.6 | 13.6 | 
O=C(CCCCCCN1CC(=O)N2[C@@H](c3ccc(Cl)c(Cl)c3)c3[nH]c4ccccc4c3C[C@H]2C1=O)NO | 9.39 | 13.6 | 10.1 | 9.29 | 14.5 | 17.3 | 6.57 | 13.2 |  | 4.63 | 4.99 | 3.5 | 3.8 | 4.22 | 1.12 | 1.62 | 4.07 | 
COc1ccc(/C=C(\C#N)n2nnc3c(F)cccc32)cc1 | > 51.2 | > 100 | > 100 | > 100 | 1.57 | > 100 | 2.53 | > 49.9 |  | 0.607 | 0.78 | 0.38 | 0.39 | 0.245 | 0.456 | 0.283 | 0.504 | 
Oc1ccc(C(c2ccc(O)cc2)c2ccc(Br)cn2)cc1 | > 79.7 | 60 | 3.44 | 18.9 | 47.4 | 76.4 | 0.411 | 21 |  | 21.5 | 1.95 | 0.308 | 0.454 | 14.5 | 21.3 | 0.0963 | 1.69 | 
O=C1c2sccc2-c2cccc3cccc1c23 (tested in a mixture with another compound) | > 100 | 16.8 | 15.6 | 28.6 | > 100 | 5.2 | 67.8 | > 100 |  |  |  |  |  |  |  |  |  | 
NS(=O)(=O)c1ccc(-c2cc3ccncc3cc2OCc2ccccc2)cc1 | > 25 | > 25 | > 25 | > 25 | > 25 | > 25 | > 25 | > 25 |  | > 19.8 | 8.59 | > 21.2 | > 20.2 | > 25 | > 13.6 | 12.1 | 14.6 | 
COC1=C(OC)C(=O)C(SC/C=C(\C)CCCC(C)CCCC(C)CCCC(C)C)=CC1=O (stereo not drawn) | > 100 | > 100 | > 100 | > 87.9 | > 100 | > 100 | > 100 | 4.24 |  | 11.2 | 2.83 | 8.49 | 0.934 | 0.743 | 1.41 | 0.857 | 0.802 | 
Cc1cccc2c3c(sc12)C(c1ccc(Cl)cc1)C(C#N)=C(N)O3 (stereo not drawn) | 13.3 | 9.66 | 4.52 | 10.7 | 12.8 | 13.7 | 3.16 | 21 |  | 0.643 | 0.486 | 0.435 | 0.428 | 0.326 | 0.497 | 0.384 | 1.41 | 
C[C@]12CC[C@@H]3c4cc(OC(F)F)c(OS(N)(=O)=O)cc4CC[C@H]3[C@@H]1CC[C@@H]2O | 29.1 | > 88.2 | 13.9 | 16.6 | 14.6 | > 64.4 | 11.1 | 38.7 |  | 0.621 | 1.75 | 0.653 | 0.422 | 0.343 | 0.641 | 0.39 | 3.34 | 
O=C(CC1(O)C(=O)N(Cc2ccccc2)c2ccccc21)c1ccc(C(=O)NCC2CCC3(CC2)OOC2(CCCCC2)OO3)cc1 (stereo not drawn) | 0.345 | 0.458 | 4.51 | 2.58 | 7.26 | 4.61 | 2.74 | 5.24 |  | 0.18 | 0.201 | 1.93 | 0.988 | 2.48 | 1.89 | 1.21 | 2.28 | 
C=CCN1CC(=O)N2[C@@H](Cc3ccc(O)cc3F)C(=O)N(Cc3cccc(N4CC(N5CCN(CC)CC5)C4)n3)C[C@@H]2N1C(=O)NCc1ccccc1 | > 100 | > 100 | 0.262 | > 100 | 19.6 |  | > 100 | 0.476 |  | 0.173 | 0.0412 | 0.028 | 0.111 | 0.0445 | 0.0276 | 0.0328 | 0.0435 | 
Cc1cc(C)nc(SC2=C(Nc3cc(Cl)ccc3O)C(=O)N(Cc3ccccc3)C2=O)n1 | 85.2 | > 160 | 90.7 | 73.8 | > 160 | 31.4 | 53.2 | > 160 |  | 14.7 | 30.7 | 36.4 | 27.4 | 48.4 | 6.14 | 18.8 | 49.5 | 
CCc1cccc(C)c1NC(=O)c1sc2nc3c(cc2c1N)C(=O)CCC3 | > 100 | > 100 | 1.51 | > 100 | 25.8 | > 69.6 | 2.74 | 27.3 |  | 0.734 | 0.652 | 0.35 | 0.455 | 0.43 | 2.62 | 0.375 | 0.365 | 
CCCCCCNC(=O)Oc1ccc(/C(=C(\C)c2ccc(Cl)cc2)c2ccc(OCCN3CCCCC3)cc2)cc1 | 6.41 | 10.5 | 6.44 | 10.4 | 3.65 | 23.3 | 9.42 | 12.8 |  | 1.93 | 4.73 | 1.44 | 3.53 | 0.785 | 1.47 | 4.39 | 6.22 | 
OC(C#Cc1ccccc1)(c1ccccc1)c1ccccc1 | > 100 | 52.9 | > 100 | 78.4 | > 100 | > 100 | 85.3 | 55.4 |  |  |  |  |  |  |  |  |  | 
c1ccc2cc(-c3n(Cc4ccc5ccccc5n4)c4ccccc4[n+]3Cc3ccc4ccccc4n3)ccc2c1 | 1.72 | 1.51 | 0.346 | 1.21 | 1.53 | 1.4 | 1.39 | 1.01 |  | 0.392 | 0.349 | 0.171 | 0.321 | 0.307 | 0.348 | 0.314 | 0.283 | 
Cc1cc(N(CCCNc2ccnc3cc(Cl)ccc23)Cc2ccco2)nc(N2CCN(C)CC2)n1 | 3.63 | 15.4 | 3.94 | 16.7 | 3.44 | 14 | 12.1 | 4.21 |  | 1.83 | 4.34 | 1.89 | 3.73 | 1.85 | 2.74 | 2.87 | 1.95 | 
O=[N+]([O-])c1ccc(N2CCOCC2)c2c1no[n+]2[O-] | 6 | 6.28 | 2.24 | 2.48 | 3.81 | 3.43 | 3.15 | 5.11 |  | 2.12 | 1.9 | 0.906 | 1.14 | 1.11 | 0.85 | 1.4 | 2.06 | 
